In brackets after ≈: the same amount, converted by molar mass.

One may read the MIC as the lowest concentration that inhibits growth of the organism. A high value points to a less susceptible organism.

Common to all, as to test: ≥ marks a high value that may be exact or a test limit, other limits are often not marked, values filed in µg/mL are converted to µM
The subject of test [1] is Escherichia coli ATCC 25922.
Test [2] has as its system Escherichia coli DH5alpha.
Test [3] deals with Escherichia coli.
Test [4] concerns Pseudomonas aeruginosa ATCC 27853.
Test [5] relates to Pseudomonas aeruginosa H188.
For test [6], the system named is Bacillus subtilis ATCC 6633.
Test [7] has as its system Escherichia coli K-12.
The subject of test [8] is Micrococcus luteus NCIMB 13267.
In test [9] the test system is Staphylococcus aureus ATCC 6538.
For test [10], the system named is Escherichia coli ATCC 25322.
Test [11] relates to Staphylococcus aureus ATCC 25923.
For test [12], the system named is Mycobacterium tuberculosis H37Rv.
The subject of test [13] is Streptococcus pneumoniae ATCC 49619.
In test [14] the test system is Aeromonas hydrophila CGMCC 1.0927.
For test [15], the system named is Aeromonas sobria.
In test [16] the test system is Bacillus subtilis CGMCC 1.108.
The subject of test [17] is Candida albicans CGMCC 2.2411.
The test system of test [18] is Corynebacterium glutamicum CGMCC 1.1886.
The test system of test [19] is Edwardsiella tarda.
Test [20] deals with Escherichia coli MC1061.
In test [21] the test system is Micrococcus luteus CGMCC 1.0634.
The test system of test [22] is Micrococcus luteus CGMCC 1.634.
Test [23] has as its system Pseudomonas fluorescens CGMCC 1.0032.
In test [24] the test system is Shigella flexneri CGMCC 1.1868.
Test [25] deals with Staphylococcus aureus CGMCC 1.363.
Test [26] has as its system Staphylococcus epidermidis CGMCC 1.2429.
In test [27] the test system is Vibrio alginolyticus CGMCC 1.1833.
The subject of test [28] is Vibrio fluvialis CGMCC 1.1609.
Test [29] deals with Vibrio harveyi CGMCC 1.1593.
Test [30] has as its system Vibrio parahaemolyticus CGMCC 1.1615.
Test [31] deals with Bacillus subtilis ATCC 9466.
Test [32] deals with Burkholderia cepacia 6/06.
Test [33] relates to Candida albicans.
Test [34] concerns Escherichia coli HB101.
The subject of test [35] is Pseudomonas aeruginosa ATCC 15442.
Test [36] has as its system Pseudomonas aeruginosa.
The subject of test [37] is Staphylococcus aureus ATCC 6538P.
The subject of test [38] is Staphylococcus aureus Cowan 1.
The subject of test [39] is Staphylococcus aureus.
Test [40] relates to Stenotrophomonas maltophilia FC.

On to `CC[C@H](C)[C@H](NC(=O)[C@H](C)NC(=O)[C@H](CCCCN)NC(=O)[C@H](CC(C)C)NC(=O)[C@H](C)NC(=O)[C@@H](NC(=O)[C@H](Cc1cnc[nH]1)NC(=O)[C@H](CC(C)C)NC(=O)[C@H](C)NC(=O)[C@@H](NC(=O)[C@H](CCCCN)NC(=O)[C@H](CCCCN)NC(=O)[C@H](C)NC(=O)[C@H](CO)NC(=O)[C@H](CCCCN)NC(=O)[C@H](Cc1ccccc1)NC(=O)[C@@H](NC(=O)[C@H](CCCCN)NC(=O)[C@H](CC(C)C)NC(=O)[C@H](Cc1ccccc1)NC(=O)[C@H](CO)NC(=O)[C@H](CCCCN)NC(=O)[C@H](Cc1c[nH]c2ccccc12)NC(=O)[C@H](CCCCN)NC(C)=O)[C@@H](C)O)[C@@H](C)O)[C@@H](C)O)C(=O)N[C@@H](CO)C(=O)N[C@@H](CO)C(N)=O` [KWKSFLKTFKSAKKTALHTALKAISS], for which the minimum inhibitory concentration (MIC) in [1] stood at 0.685 µM (≈ 2.03 µg/mL); in test [2], 1.37 µM (≈ 4.06 µg/mL); in test [3], 0.342 µM (≈ 1.01 µg/mL); in [4], 1.37 µM (≈ 4.06 µg/mL); in [5], 1.37 µM (≈ 4.06 µg/mL).
On to `CC(C)C[C@H](NC(=O)[C@H](CCCCN)NC(=O)[C@H](C)NC(=O)[C@H](CC(C)C)NC(=O)[C@H](CCCCN)NC(=O)[C@H](CCC(N)=O)NC(=O)[C@H](CCCCN)NC(=O)[C@H](CC(C)C)NC(=O)[C@H](CCCCN)NC(=O)[C@H](CCC(N)=O)NC(=O)[C@H](CC(C)C)NC(=O)[C@H](CCCCN)NC(=O)[C@H](C)NC(=O)[C@H](CCCCN)NC(=O)[C@H](CC(C)C)NC(=O)[C@H](CCCCN)NC(=O)[C@H](C)NC(=O)[C@H](CC(C)C)NC(=O)[C@H](CCCCN)NC(=O)[C@H](CCC(N)=O)NC(=O)[C@@H](N)CCCCN)C(=O)O` [KQKLAKLKAKLQKLKQKLAKL], for which the MIC in test [6] is 6 µM (≈ 14.7 µg/mL); in test [7], 3 µM (≈ 7.34 µg/mL); in test [8], 12 µM (≈ 29.4 µg/mL); in test [4] it was 12 µM (≈ 29.4 µg/mL); in test [9] it was more than 50 µM.
On to `CC(C)C[C@H](NC(=O)CNC(=O)[C@H](CC(N)=O)NC(=O)[C@@H](NC(=O)[C@@H](NC(=O)CNC(=O)[C@H](CC(C)C)NC(=O)[C@H](C)NC(=O)[C@H](CCCCN)NC(=O)[C@H](CC(N)=O)NC(=O)[C@H](CC(C)C)NC(=O)[C@H](CC(C)C)NC(=O)[C@@H](N)CC(N)=O)[C@@H](C)O)C(C)C)C(=O)N[C@@H](CC(C)C)C(=O)NCC(=O)N[C@@H](CCCN=C(N)N)C(=O)N[C@@H](CO)C(=O)O` [NLLNKALGTVNGLLGRS], for which the MIC in [10] is not below 64 µM; in test [11], 32 µM (≈ 55.7 µg/mL).
Consider `C[C@@H](O)[C@H](N)C(=O)N[C@@H](CCCCN)C(=O)N1CCC[C@H]1C(=O)N[C@@H](CCCCN)C(=O)NCC(=O)N[C@H](C(=O)N[C@@H](CCCCN)C(=O)N1CCC[C@H]1C(=O)N[C@@H](CCCCN)C(=O)NCC(=O)N[C@H](C(=O)N[C@@H](CCCCN)C(=O)N1CCC[C@H]1C(=O)N[C@@H](CCCCN)C(=O)NCC(=O)N[C@H](C(=O)N[C@@H](CCCCN)C(=O)N1CCC[C@H]1C(=O)N[C@@H](CCCCN)C(=O)NCC(N)=O)[C@@H](C)O)[C@@H](C)O)[C@@H](C)O` [TKPKGTKPKGTKPKGTKPKG], for which the MIC in [12] and in [13] was not below 300 µM in each case.
`CC[C@H](C)[C@H](NC(=O)[C@H](CCCN=C(N)N)NC(=O)CNC(=O)[C@@H](NC(=O)[C@@H]1CCCN1C(=O)[C@H](Cc1ccccc1)NC(=O)[C@H](CCC(N)=O)NC(=O)[C@H](CC(C)C)NC(=O)CNC(=O)[C@H](C)NC(=O)[C@H](CCCN=C(N)N)NC(=O)[C@H](C)NC(=O)[C@H](CO)NC(=O)[C@@H](N)CCCN=C(N)N)C(C)C)C(=O)N[C@@H](Cc1cnc[nH]1)C(=O)N[C@@H](CCCN=C(N)N)C(=O)N[C@@H](Cc1cnc[nH]1)C(=O)N[C@@H](CC(C)C)C(=O)N[C@@H](CCCCN)C(=O)O` [RSARAGLQFPVGRIHRHLK]: the minimum inhibitory concentration (MIC) was 4.24 µM (≈ 9.33 µg/mL) in test [14]; not below 48 µM in [15]; 4.24 µM (≈ 9.33 µg/mL) in [16]; not below 48 µM in [17]; 2.12 µM (≈ 4.67 µg/mL) in test [18]; not below 48 µM in test [19]. Also, the MIC was found to be 4.24 µM (≈ 9.33 µg/mL) in test [20]; 4.24 µM (≈ 9.33 µg/mL) in [21]; 2.12 µM (≈ 4.67 µg/mL) in [22]; 4.24 µM (≈ 9.33 µg/mL) in test [23]; 4.24 µM (≈ 9.33 µg/mL) in test [24]; 4.24 µM (≈ 9.33 µg/mL) in test [25]. The minimal inhibitory concentration (MIC) was 17 µM (≈ 37.3 µg/mL) in [26]; not below 48 µM in test [27]; not below 48 µM in test [28]; not below 48 µM in test [29]; not below 48 µM in [30].
As to `CSCC[C@H](NC(=O)[C@@H](NC(=O)CNC(=O)[C@H](CC(C)C)NC(=O)[C@H](CCCCN)NC(=O)[C@H](CCCCN)NC(=O)[C@H](CC(C)C)NC(=O)[C@H](CCSC)NC(=O)[C@@H](NC(=O)[C@H](CCCCN)NC(=O)[C@H](Cc1cnc[nH]1)NC(=O)[C@H](CC(C)C)NC(=O)[C@H](C)N)[C@@H](C)O)[C@@H](C)O)C(=O)N[C@@H](C)C(=O)N[C@@H](CC(C)C)C(N)=O` [ALHKTMLKKLGTMAL], the MIC in [31] was not below 45 µM; in test [32], not below 45 µM; in [33], more than 45 µM; in [34], not below 44.9 µM; in test [35], not below 45 µM; in test [36] it was more than 45 µM. Further, the MIC in test [37] was not below 45 µM; in [38] it was not below 44.9 µM; in test [39], more than 45 µM; in [40], not below 45 µM.
